This is an account of results in ChEMBL document CHEMBL1201862, “PubChem BioAssay data set” (2004).

Assay [1] addresses T1, SUMO-activating enzyme (Homo sapiens, UniProt Q9UBT2). The assay is described as follows: inhibitors of in vitro SUMOylation cascade, primary screen, biochemical, HTRF, uHTS (AID 2006). It is filed as protein-complex assay. For orientation: TR-FRET usually uses a lanthanide donor and a delayed reading to cut background.
The target of assay [2] is T2, Heat shock factor protein 1 (Mus musculus, UniProt P38532).
T2 sequence (P38532 whole entry): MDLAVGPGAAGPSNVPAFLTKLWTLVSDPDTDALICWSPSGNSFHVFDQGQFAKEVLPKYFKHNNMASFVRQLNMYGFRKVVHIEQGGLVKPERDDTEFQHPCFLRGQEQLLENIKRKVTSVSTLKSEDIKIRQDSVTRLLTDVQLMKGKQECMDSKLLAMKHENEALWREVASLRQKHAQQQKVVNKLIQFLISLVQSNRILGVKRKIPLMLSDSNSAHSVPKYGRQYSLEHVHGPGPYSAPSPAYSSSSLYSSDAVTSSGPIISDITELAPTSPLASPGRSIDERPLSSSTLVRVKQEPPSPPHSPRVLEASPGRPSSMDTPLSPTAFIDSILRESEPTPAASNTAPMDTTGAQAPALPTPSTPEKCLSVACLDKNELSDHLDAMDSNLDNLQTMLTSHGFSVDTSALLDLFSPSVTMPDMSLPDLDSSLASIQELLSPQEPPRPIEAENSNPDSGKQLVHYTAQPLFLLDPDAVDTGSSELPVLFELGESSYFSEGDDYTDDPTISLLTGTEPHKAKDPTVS
The assay is described as follows: HSF1 potentiators in luciferase reporter cells, confirmation, cell-based, NIH3T3, luminescence, dose retest (AID 435004).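 Also: stress induced by proteasome inhibitor MG132 added 30 min after compound; luciferase reporter driven by HSF1 response element in NIH3T3 cells; actives raise luminescence as potentiators of the MG132 stress response.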 It is filed as functional. Background: A reporter such as luciferase makes a cellular process visible.

For assay [3], the target named is T3, Long-chain-fatty-acid--AMP ligase FadD28 (Mycobacterium tuberculosis, UniProt P9WQ59).
T3 sequence (P9WQ59 whole entry): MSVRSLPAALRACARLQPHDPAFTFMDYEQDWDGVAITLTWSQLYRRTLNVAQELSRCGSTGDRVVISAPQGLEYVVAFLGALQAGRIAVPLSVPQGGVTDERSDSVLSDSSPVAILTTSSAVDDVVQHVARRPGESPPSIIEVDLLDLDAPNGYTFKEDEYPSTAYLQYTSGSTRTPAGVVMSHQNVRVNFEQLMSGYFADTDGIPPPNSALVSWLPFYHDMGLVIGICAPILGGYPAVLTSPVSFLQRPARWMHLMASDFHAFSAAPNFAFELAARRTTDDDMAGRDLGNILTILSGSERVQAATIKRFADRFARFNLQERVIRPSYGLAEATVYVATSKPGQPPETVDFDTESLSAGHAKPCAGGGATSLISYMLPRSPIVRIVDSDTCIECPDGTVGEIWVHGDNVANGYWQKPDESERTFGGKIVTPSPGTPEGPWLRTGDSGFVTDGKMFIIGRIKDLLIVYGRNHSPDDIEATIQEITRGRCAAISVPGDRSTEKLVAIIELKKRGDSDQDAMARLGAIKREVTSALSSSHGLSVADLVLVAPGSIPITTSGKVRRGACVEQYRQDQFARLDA
Description: Fluorescence polarization aasay to screen for inhibitors that compete for the binding of FadD28 to a bisubstrate Measured in Biochemical System Using Plate Reader - 2147-01_Inhibitor_Dose_CherryPick_Activity. Format: functional, Mycobacterium tuberculosis H37Rv. A general note: Polarisation of emitted light reports the rotation of a fluorescent probe.

Assay [4] has as its target Dual specificity tyrosine-phosphorylation-regulated kinase 1A (Rattus norvegicus, UniProt Q63470). It is filed as biochemical, Homo sapiens.
The target of the next assay is Genome polyprotein (dengue virus type 2, UniProt P29990). The assay is described as follows: Dengue-2 NS5 methyltransferase inhibitors, primary screen, biochemical, confirmation dose response (AID 588689). It is filed as functional.
Chain of Genome polyprotein (P29990 2492-3391 limits assumed): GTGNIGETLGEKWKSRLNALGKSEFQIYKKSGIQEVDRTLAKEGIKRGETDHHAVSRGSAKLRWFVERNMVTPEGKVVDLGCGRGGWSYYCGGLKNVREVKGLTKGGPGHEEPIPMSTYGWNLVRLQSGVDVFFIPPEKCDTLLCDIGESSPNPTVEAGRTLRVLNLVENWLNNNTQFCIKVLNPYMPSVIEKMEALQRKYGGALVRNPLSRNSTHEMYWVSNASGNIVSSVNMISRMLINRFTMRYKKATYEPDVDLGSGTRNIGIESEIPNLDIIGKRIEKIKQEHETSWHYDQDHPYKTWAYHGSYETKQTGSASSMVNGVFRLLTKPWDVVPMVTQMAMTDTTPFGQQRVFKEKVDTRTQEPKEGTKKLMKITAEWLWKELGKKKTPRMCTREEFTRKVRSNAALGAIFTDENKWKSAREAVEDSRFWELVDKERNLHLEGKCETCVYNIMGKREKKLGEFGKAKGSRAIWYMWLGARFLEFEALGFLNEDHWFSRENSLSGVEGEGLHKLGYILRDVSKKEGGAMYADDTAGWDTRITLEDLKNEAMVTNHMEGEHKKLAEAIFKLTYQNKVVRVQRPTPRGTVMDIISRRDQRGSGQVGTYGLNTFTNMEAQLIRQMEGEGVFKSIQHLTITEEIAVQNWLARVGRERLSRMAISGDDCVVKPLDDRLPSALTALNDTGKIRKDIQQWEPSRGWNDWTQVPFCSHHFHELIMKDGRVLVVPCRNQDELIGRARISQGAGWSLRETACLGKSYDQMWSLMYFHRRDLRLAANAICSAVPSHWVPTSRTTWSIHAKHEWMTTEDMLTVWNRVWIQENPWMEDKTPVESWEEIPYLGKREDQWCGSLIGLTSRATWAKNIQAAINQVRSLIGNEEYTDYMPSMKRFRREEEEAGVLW
Assay [5] has as its target T1, SUMO-activating enzyme. Description: SUMOylation inhibitor hit validation, confirmation, SUMOylation inhibitor project, biochemical, AlphaScreen (AID 2018). Format: functional.
The nature of assay [6]: inhibitors of SNCA 5'UTR-driven reporter translation, confirmation, H4 neuroglioma cells, luminescence (AID 1988). It is filed as functional, cell-based.
Assay [7] has as its system Streptococcus sp. 'group A'. The assay is described as follows: growth inhibition of control SK(-) GAS strain, dose response, counter-screen for streptokinase expression inhibitor project, luminescence, kanamycin, BacTiterGlo, confirmation (AID 1900). Format: functional, organism-based.
The subject of the next assay is INS1. The assay is described as follows: beta cell apoptosis inhibitors, cytokine rescue, dose response, luminescence, retest (AID 449756).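 Also: cell death triggered by IL-1 beta plus TNF-alpha plus IFN-gamma mixture; protective hits raise ATP signal compared with cytokine alone wells.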 Format: functional, cell-based. Particulars: Rattus norvegicus.
The nature of assay [8]: inhibitors of firefly luciferase expression or activity, dose response, H4 neuroglioma cells, luminescence (AID 1990). It is filed as functional, cell-based.
The nature of assay [9]: Luminescence Cell-Based Dose Response HTS to Identify Inhibitors of 5'UTR Stem-Loop Driven Prion Protein mRNA Translation in H4 Neuroglioblastoma Cells. [Related pubchem assays: 1827 (Project Summary), 1813 (Primary HTS)]. It is filed as functional.
The subject of the next assay is Streptococcus. Description: Group A Streptococcus viability loss, dose response, counter-screen for streptokinase expression inhibitor project, luminescence, BacTiterGlo (AID 1915).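 Also: potency for reduction of bacterial viability or growth.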 It is filed as functional, organism-based.
Assay [10] deals with Serine/threonine-protein phosphatase (Homo sapiens, UniProt Q9BPW0). The assay is described as follows: PP5 phosphatase inhibitors, dose response, biochemical, fluorescence (AID 2395).
Chain of Serine/threonine-protein phosphatase (Q9BPW0 whole entry): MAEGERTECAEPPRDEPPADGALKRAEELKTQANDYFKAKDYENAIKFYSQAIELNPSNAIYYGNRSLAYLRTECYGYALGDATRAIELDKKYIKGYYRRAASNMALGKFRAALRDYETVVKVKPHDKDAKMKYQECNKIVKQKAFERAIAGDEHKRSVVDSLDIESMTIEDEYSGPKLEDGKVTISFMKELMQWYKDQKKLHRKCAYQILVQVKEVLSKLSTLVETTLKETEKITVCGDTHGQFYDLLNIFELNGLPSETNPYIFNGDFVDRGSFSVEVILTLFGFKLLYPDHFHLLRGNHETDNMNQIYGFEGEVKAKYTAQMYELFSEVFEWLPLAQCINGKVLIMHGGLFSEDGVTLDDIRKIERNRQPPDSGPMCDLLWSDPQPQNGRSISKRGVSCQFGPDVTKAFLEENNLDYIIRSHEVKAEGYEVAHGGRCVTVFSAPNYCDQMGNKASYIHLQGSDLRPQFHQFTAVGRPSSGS
Assay [11] concerns the target Serine/threonine-protein phosphatase PP1-alpha catalytic subunit (Homo sapiens, UniProt P62136). Description: PP1 phosphatase inhibitors, dose response, biochemical, fluorescence (AID 2394).
Assay [12] addresses T4, Sentrin-specific protease 8 (Homo sapiens, UniProt Q96LD8).
T4 sequence (Q96LD8 whole entry): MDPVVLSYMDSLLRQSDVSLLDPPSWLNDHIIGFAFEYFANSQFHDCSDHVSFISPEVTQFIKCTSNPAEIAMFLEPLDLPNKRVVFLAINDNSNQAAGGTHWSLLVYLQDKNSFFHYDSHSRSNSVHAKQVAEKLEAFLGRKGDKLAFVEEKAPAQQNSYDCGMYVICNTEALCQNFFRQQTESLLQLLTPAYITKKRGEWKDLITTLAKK
It is filed as functional.

Assay [13] deals with T4, Sentrin-specific protease 8. It is filed as functional. This is another data set of the same source.

Calls of active or inactive are those of the source.

Broadly, the IC50 is the concentration that gives 50% inhibition. In general, EC50 refers to the concentration giving half of the maximal effect. One may read the AC50 as the concentration giving half of the maximal activity seen.

T1 sequence (Q9UBE0 whole entry): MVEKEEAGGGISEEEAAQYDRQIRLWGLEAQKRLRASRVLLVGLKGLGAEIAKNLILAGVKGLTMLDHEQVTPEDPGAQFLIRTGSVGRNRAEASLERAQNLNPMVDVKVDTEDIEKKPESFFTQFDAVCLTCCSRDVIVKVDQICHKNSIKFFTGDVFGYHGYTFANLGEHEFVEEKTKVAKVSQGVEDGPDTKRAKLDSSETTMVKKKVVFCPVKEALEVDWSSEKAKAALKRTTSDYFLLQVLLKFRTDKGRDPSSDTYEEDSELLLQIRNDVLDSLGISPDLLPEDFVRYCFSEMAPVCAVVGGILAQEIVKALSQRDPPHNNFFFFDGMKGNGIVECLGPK
T1 sequence (Q9UBT2 whole entry): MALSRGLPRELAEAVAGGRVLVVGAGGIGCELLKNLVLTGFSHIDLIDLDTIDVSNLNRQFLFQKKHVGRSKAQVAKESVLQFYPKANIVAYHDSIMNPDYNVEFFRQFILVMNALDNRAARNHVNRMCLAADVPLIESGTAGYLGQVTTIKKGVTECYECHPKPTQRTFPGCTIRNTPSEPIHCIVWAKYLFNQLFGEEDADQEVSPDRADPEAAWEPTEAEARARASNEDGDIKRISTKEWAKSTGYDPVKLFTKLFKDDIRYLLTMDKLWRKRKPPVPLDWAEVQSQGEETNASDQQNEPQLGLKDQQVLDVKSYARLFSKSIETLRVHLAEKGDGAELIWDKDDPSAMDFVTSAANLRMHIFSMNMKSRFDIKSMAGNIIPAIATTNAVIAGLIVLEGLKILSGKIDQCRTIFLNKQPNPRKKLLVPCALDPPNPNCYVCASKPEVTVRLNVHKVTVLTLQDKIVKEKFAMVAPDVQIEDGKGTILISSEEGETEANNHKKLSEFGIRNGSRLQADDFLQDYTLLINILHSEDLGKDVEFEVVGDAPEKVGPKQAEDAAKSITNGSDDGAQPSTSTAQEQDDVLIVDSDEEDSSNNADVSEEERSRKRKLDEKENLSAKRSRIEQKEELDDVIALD
Chain of Serine/threonine-protein phosphatase PP1-alpha catalytic subunit (P62136 whole entry): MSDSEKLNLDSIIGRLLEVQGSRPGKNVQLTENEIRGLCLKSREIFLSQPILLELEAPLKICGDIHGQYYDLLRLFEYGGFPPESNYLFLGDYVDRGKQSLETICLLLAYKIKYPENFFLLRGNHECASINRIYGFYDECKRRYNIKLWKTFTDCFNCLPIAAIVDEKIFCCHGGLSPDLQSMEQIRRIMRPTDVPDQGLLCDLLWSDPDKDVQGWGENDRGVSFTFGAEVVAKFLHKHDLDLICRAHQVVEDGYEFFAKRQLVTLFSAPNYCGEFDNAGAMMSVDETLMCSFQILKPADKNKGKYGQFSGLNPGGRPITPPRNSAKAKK

On to `O=C1C=C(Nc2ccccc2C(=O)O)c2ccccc2C1=O`, for which the IC50 on SUMO-activating enzyme [1] is 19.8 µM (active); at Genome polyprotein it was > 100 µM (active); on SUMO-activating enzyme [5], 1.9 µM (active). The EC50 in [2] is 133 µM (active). Also, the results for the AC50 in assay [3] and in [4] were > 100 µM (inactive) and 6.25 µM (active), respectively.
Turning to `CC(C)(C)c1cc[n+](C2=C([N-]S(=O)(=O)c3ccccc3)C(=O)c3ccccc3C2=O)cc1`, the EC50 is 9.04 µM (active) in assay [6]; 4.89 µM (active) in [7]; > 120 µM (not active) in assay [8]; 25 µM (active) in [9]; 5.15 µM (active) with Streptococcus. For the same compound, in the assay on INS1, the half-maximal activity concentration (AC50) was 14.5 µM (active).
As for `COc1ccc(NC(=S)Nc2ccc3nsnc3c2)cc1`, the concentration for half-maximal inhibition (IC50) was > 2.48 µM (active) in assay [10], > 67 µM (not active) in [11], 6.61 µM (active) in [12] and 2.3 µM (active) in [13].
